Measurements from patent US20080200405A1, “Drug Resistance Reversal In Neoplastic Disease” (priority 2007, published 2008).
Marks after values point to notes of the source that are not given here.

Experiments:
Lipid peroxidation = Lipid peroxidation inhibition (method of Ohkawa); assay type: biochemical; conditions: for Lipid Peroxidation Inhibition, % Inhibition: 10 uM
Angiogenesis in CAM = assay: Neovascularization on the CAM (Inhibition of Angiogenesis in CAM); assay type: in vivo, chicken; conditions: 30 ug; for inhibition in vivo at 0.03 mg: Gallus gallus
Procedure: In vivo neovascularization was examined by the method previously described by Auerbach et al. (J. Dev. Biol. 41:391-394 (1974)). Ten-day old chicken embryos were purchased from Spafas, Inc. (Preston, Conn.) and were incubated at 37° C. with 55% relative humidity. In the dark, with the aid of a candling lamp, a small hole was punctured in the shell concealing the air sac with a hypodermic needle. A second hole was punctured in the shell on the broadside of the egg directly over an […] portion of the embryonic membrane, as observed during candling. An artificial air sac was created beneath the second hole by applying gentle vacuum to the first hole using a small rubber squeeze bulb. The vacuum caused the chorioallantoic membrane (CAM) to separate from the shell. A window, approximately 1.0 cm^2, was cut in the shell over the dropped CAM with the use of a small crafts grinding wheel (Dremel, Division of Emerson Electric Company Racine, Wis.). The window allowed direct access to the underlying CAM. A pro-angiogenic agent was added to induce new blood vessel branches on the CAM of 10-day old embryos. […] Louis, Mo.) in a solution (95% ethanol and water). The disks were subsequently air dried under sterile conditions. The disks were then suspended in PBS (Phosphate Buffered Saline) and placed on growing CAMs. […] For inducing angiogenesis, sterile filter disks were saturated with bFGF (1 μg/ml) (Life Technologies, Gaithersburg, Md.) or other pro-angiogenesis factors and control disks were saturated with PBS without Calcium and Magnesium. Control disks were saturated with PBS without Calcium and Magnesium. Using sterile forceps one filter/CAM was placed from the window. The window was sealed with Highland brand transparent tape. After 24-48 hr, 10-25 ul of test agent was injected intravenously or added topically into the CAM membrane. Eight-Ten eggs/treatment group were used. CAM tissue directly beneath filter disk was harvested from embryos treated 48 hours prior with compound or control. Tissues were washed three times with PBS. Sections were placed in a 35-mm petri dish (Nalge Nunc, Rochester, N.Y.) and examined under a SV6 stereomicroscope (Karl Zeiss, Thornwood, N.Y.) at 50× magnification. […] Digital images of CAM sections from Petri dish were collected using a 3-CCD color video camera system (Toshiba America, New York, N.Y.). These images were analyzed using Image-Pro Plus software (Media Cybernetics, Silver Spring, Md.). The number of branch points in blood vessels within the circular region superimposed to the area of a filter disk was counted for each section. […] Tissues were washed three times with PBS. Sections were placed in a 35-mm Petri dish (Nalge Nunc; Rochester, N.Y.) and were examined under a SV6 stereomicroscope (Karl Zeiss; Thornwood, N.Y.) at 50× magnification. Digital images of CAM sections adjacent to filters were collected using a 3-CCD color video camera system (Toshiba America; New York, N.Y.) and analyzed with the Image-Pro Plus software (Media Cybernetics; Silver Spring, Md.). The number of vessel branch points contained in a circular region equal to the area of a filter disk was counted for each section. Percent inhibition data are expressed as the quotient of the experimental value minus the negative control value divided by the difference between the positive control value and the negative control value. One image was counted in each CAM preparation, and findings from eight CAM preparations were analyzed for each treatment condition. In addition, each experiment was performed three times. The resulting angiogenesis index is the mean ±SEM (Standard Error of Measurement) of new branch points in each set of treatment. Statistical analysis of blood vessel branching patterns are performed by 1-way analysis of variance (ANOVA) comparing experimental with corresponding control groups.

TNFα = assay: Measurement of LPS Induced-TNFα in THP-1 Cells; assay type: cell-based, human; conditions: Homo sapiens, THP-1
[1] = tested on: Doxorubicin resistant SaOS2 cells; assay: Cancer cell viability (MTT) in the presence or absence of doxorubicin; assay type: cell-based, human; conditions: compound 50 ug/mL, 3 days
[2] = tested on: angiogenesis in the CAM model; assay: Effect of TEMPOL-H on the anti-angiogenesis efficacy of ranibizumab in the CAM model; assay type: in vivo, chicken; conditions: for Mean % Inhibition +/− SEM, With TEMPOL-H (30 ug): P < 0.01; for Mean % Inhibition +/− SEM, Without TEMPOL-H: n = 6-8
Procedure: FIGS. 3A and 3B depict the effect of TEMPOL-H (OT-674) on the anti-angiogenesis efficacy of ranibizumab (LUCENTIS™) in the CAM model. FIG. 3A depicts 30 ug of TEMPOL-H and 1 ng of ranibizumab. FIG. […]
Ranibizumab (Genentech, South San Francisco, Calif.) is a monoclonal antibody fragment that binds to VEGF-A. It is anti-angiogenic and is approved to treat the wet type of age-related macular degeneration. The effect of the co-administration of TEMPOL-H (also referred to as OT-674) with Ranibizumab is depicted in Table 9. This effect is also depicted in FIGS. 3A and 3B.

[3] = tested on: Human whole blood clot formation
Procedure: TEG: Human whole blood (±drugs) was added to the cylindrical cuvette (“cup”). […] The cup oscillates 4°45′ ( 1/12 radian) in either direction every 4.5 seconds, with a 1-second mid-cycle stationary period, resulting in a frequency of 0.1 Hz and a maximal shear rate of 0.1 per second. The pin was suspended by a torsion wire that acts as a torque transducer. […] The torque experienced by the pin (relative to the oscillation of the cup) was plotted as a function of time (Forsythe, S. A. M. S. K. M. S. (2000): “Comparative In Vitro Efficacy of Different Platelet Glycoprotein IIb/IIIa Antagonists on Platelet-Mediated Clot Strength Induced by Tissue Factor With Use of Thromboelastography.” Arteriosclerosis, Thrombosis, and Vascular Biology 20: 1162).
(Data represent mean ±SD, n=6 (blood form normal healthy volunteers), *P<0.01 as compared to control)

[4] = TEG, human whole blood, Ranibizumab 1 ng/cup, Comp. 4 0 uM, *P<0.01 vs control

Compound: COc1cc2c(cc1O)CC[C@@H]1[C@@H]2CC[C@]2(C)[C@@H](O)CC[C@@H]12 [2-methoxyestradiol, reference compound]
- Lipid Peroxidation Inhibition, % Inhibition (Lipid peroxidation): 92.3%
- Inhibition of Angiogenesis in CAM, % Inhibition (Angiogenesis in CAM): 92.3%

Compound: CC1(C)c2ccc(C(=O)O)cc2C(C)(C)N1O.Cl [Compound 15, 1,1,3,3-tetramethylisoindolin-2-hydroxyl-5-carboxylic acid hydrogen chloride]
- inhibition at 10 µM (TNFα; compound 10 uM, 5 ng/mL LPS, read-out: Mean Percent Inhibition of TNF-alpha using 5 ng/mL LPS): 67 ± 7%
- % Lipid Peroxidation inhibition (at 1 uM) (Lipid peroxidation; 1 uM): 88.0%
- Lipid Peroxidation Inhibition, % Inhibition (Lipid peroxidation): 94.6%
- inhibition in vivo at 0.03 mg (Angiogenesis in CAM): 94.6%
- melting point: 225.5 °C (dec.)

Compound: CC1(C)COCC(C)(C)N1O.Cl [Compound 20, 3,3,5,5-1-hydroxy-tetramethylmorpholine hydrogen chloride]
- IC50 (TNFα; read-out: TNFalpha IC50): ≥ 100 µM
- Lipid Peroxidation Inhibition, % Inhibition (Lipid peroxidation): 90.2%
- inhibition in vivo at 0.03 mg (Angiogenesis in CAM): 90.2%
- Mean OD (×10^−3), MTT viability ([1]; Dox. 10^−6 M (+)): 107.5 ×10^−3
- Mean OD (×10^−3), MTT viability ([1]; absence of Dox. (−)): 515.50 ×10^−3
- melting point: 184.6 °C (dec.)

Compound: Ranibizumab: a monoclonal antibody fragment that binds to VEGF-A
- Mean % Inhibition +/− SEM, With TEMPOL-H (30 ug) ([2]; VEGF + Ranibizumab (1 ug) with TEMPOL-H (30 ug)): 54 +/− 9* %
- Mean % Inhibition +/− SEM, Without TEMPOL-H ([2]; VEGF + Ranibizumab (1 ug)): 18 +/− 5%
- Mean % Inhibition +/− SEM, With TEMPOL-H (30 ug) ([2]; VEGF + Ranibizumab (10 ug) with TEMPOL-H (30 ug)): 69 +/− 6* %
- Mean % Inhibition +/− SEM, Without TEMPOL-H ([2]; VEGF + Ranibizumab (10 ug)): 33 +/− 6%
- Mean % Inhibition +/− SEM, With TEMPOL-H (30 ug) ([2]; VEGF + Ranibizumab (100 ug) with TEMPOL-H (30 ug)): 83 +/− 4* %
- Mean % Inhibition +/− SEM, Without TEMPOL-H ([2]; VEGF + Ranibizumab (100 ug)): 53 +/− 8%
- MA in comparison to native blood [3]: approximately six times larger MA
- initiation of clot formation in comparison to native blood [3]: approximately two to three fold faster
- Clot Strength - MA [3, 4]: 28.5 ± 3.4* mm
- Time to Clot Initiation R [3, 4]: 6.9 ± 1.4* min
